In experiment [1] the test system is scopolamine induced memory deficit. Put plainly: Object recognition test (scopolamine induced memory deficit). It is filed as in vivo, rat. To be noted: rats. As for the experimental part:
They were kept under a 12/12-hour light/dark cycle (lights on from 19.00 to 7.00 h) and had free access to food and water. […] A radio, which was playing softly, provided background noise in the room. […] The apparatus consisted of a circular arena, 83 cm in diameter. […] The light intensity was equal in the different parts of the apparatus, as fluorescent red tubes provided a constant illumination of about 20 lux on the floor of the apparatus. […] Each object was available in triplicate. Four different sets of objects were used. A testing session consisted of two trials. […] During the first trial (T1) the apparatus contained two identical objects (samples). Rats were placed in the apparatus facing the wall at the middle of the front (transparent) segment. After the first exploration period the rat was put back in its home cage. […] Exploration was defined as follows: directing the nose to the object at a distance of no more than 2 cm and/or touching the object with the nose. Sitting on the object was not considered as exploratory behavior.

Experiment [2] has as its system conditioned avoidance response. Put plainly: Conditioned avoidance response (CAR) test. As to conditions: Rattus norvegicus. It is filed as in vivo. The source says:
Conditioned Avoidance Response (CAR) Test
The apparatus consisted of an inner box surrounded by an outer box. The inner box was composed of four walls of transparent, synthetic material (length×width×height: 30×30×30 cm), an open top, and a grid floor made of 15 pairs of iron bars (2 mm diameter; 6 mm inter-bar distance). Odd and even bars were connected with a source of alternative current (1.0 mA; Coulbourn Instruments Solid State Shocker/Distributor), which could be interrupted by a switch. The outer box was composed of the same material (length×width×height: 40×40×36 cm), also with an open top, with a distance of 5 cm between the inner and outer box on all sides. To decrease the amount of environmental stimuli, three walls of the outer box were made non-transparent. The front wall was left transparent to allow the necessary inspection of the animal during the test. The upper edge of the outer and inner box served as a target for the rats on which to jump with fore- and hind-paws, respectively.
From their arrival in the laboratory on the experimental day, male Wiga Wistar rats (230±30 g) were housed in individual cages provided with bedding material.
The rats were tested 3 times, i.e. at 60, 90 and 120 min after the injection of test compound or solvent. Latency to avoidance was recorded. The median avoidance response obtained over the three experimental sessions for each rat were used for further calculations.

Experiment [3] deals with apomorphine-induced stereotypy. In words: Apomorphine-induced stereotypy in rats (APO). It is filed as in vivo. To be noted: Rattus norvegicus. As for the experimental part:
Apomorphine-Induced Stereotypy in Rats (APO)
Apomorphine (1.0 mg/kg, i.v.)-induced stereotypy (compulsive sniffing, licking, chewing) was scored every 5 min. over the first hour after injection of apomorphine, following a 1 hour interval pre-treatment with the test compound. The score system was: (3) pronounced, (2) moderate, (1) slight, and (O) absent.

Experiment [4] has as its system PCP-induced hyperlocomotion. In words: PCP-induced hyperlocomotion in rats (PCP). Format: in vivo. To be noted: Rattus norvegicus.
The next experiment addresses PDE9A (Homo sapiens, UniProt O76083). Put plainly: In vitro PDE selectivity assay, PDE9A. It is filed as biochemical. As for the experimental part: (§1) Rat recombinant PDE10A (rPDE10A2) was expressed in Sf9 cells using a recombinant rPDE10A baculovirus construct. Cells were harvested after 48 h of infection and the rPDE10A protein was purified by metal chelate chromatography on Ni-sepharose 6FF. […] The reaction was incubated for 60 min. at RT. […] After sedimentation of the beads during 30 min. the radioactivity was measured in a Perkin Elmer Topcount scintillation counter and results were expressed as cpm. For blank values the enzyme was omitted from the reaction and replaced by incubation buffer. […] The same assay principle is applied for the measurement of the affinity of the compound for other members of the PDE family with appropriate modifications in incubation buffer, substrate concentration, incubation time and stop solution.

For a further experiment, the target named is PDE5A (Homo sapiens, UniProt O76074). Put plainly: In vitro PDE selectivity assay, PDE5A. Format: biochemical. As to conditions: Table 4a in vitro selectivity; read-out: IC50 PDE type 5A. As for the experimental part:
as §1

For another experiment, the target named is PDE1B (Homo sapiens, UniProt Q01064). In words: In vitro PDE selectivity assay, PDE1B. To be noted: Table 4a in vitro selectivity; read-out: IC50 PDE type 1B. Format: biochemical. Here is the method: as §1
Chain of PDE1B (Q01064 whole entry): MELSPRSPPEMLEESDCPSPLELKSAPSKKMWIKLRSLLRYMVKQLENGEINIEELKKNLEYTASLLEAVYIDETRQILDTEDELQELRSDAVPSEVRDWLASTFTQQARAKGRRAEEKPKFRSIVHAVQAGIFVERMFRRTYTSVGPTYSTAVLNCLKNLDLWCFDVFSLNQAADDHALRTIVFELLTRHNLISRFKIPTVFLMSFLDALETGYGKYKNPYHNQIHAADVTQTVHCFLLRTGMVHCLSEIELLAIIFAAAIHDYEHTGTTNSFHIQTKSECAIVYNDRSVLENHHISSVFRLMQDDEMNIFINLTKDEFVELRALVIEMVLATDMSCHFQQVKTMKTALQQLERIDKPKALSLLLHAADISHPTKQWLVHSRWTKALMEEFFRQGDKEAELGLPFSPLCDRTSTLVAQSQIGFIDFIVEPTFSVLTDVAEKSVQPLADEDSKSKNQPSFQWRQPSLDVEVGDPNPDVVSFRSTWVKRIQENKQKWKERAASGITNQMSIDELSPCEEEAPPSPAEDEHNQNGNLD
Experiment [5] deals with T1, Rat recombinant PDE10A (rPDE10A2) (Rattus norvegicus, UniProt Q9QYJ6).
T1 construct: made in house; host or cells: Sf9 insect cells, baculovirus
T1 sequence (Q9QYJ6 1-794): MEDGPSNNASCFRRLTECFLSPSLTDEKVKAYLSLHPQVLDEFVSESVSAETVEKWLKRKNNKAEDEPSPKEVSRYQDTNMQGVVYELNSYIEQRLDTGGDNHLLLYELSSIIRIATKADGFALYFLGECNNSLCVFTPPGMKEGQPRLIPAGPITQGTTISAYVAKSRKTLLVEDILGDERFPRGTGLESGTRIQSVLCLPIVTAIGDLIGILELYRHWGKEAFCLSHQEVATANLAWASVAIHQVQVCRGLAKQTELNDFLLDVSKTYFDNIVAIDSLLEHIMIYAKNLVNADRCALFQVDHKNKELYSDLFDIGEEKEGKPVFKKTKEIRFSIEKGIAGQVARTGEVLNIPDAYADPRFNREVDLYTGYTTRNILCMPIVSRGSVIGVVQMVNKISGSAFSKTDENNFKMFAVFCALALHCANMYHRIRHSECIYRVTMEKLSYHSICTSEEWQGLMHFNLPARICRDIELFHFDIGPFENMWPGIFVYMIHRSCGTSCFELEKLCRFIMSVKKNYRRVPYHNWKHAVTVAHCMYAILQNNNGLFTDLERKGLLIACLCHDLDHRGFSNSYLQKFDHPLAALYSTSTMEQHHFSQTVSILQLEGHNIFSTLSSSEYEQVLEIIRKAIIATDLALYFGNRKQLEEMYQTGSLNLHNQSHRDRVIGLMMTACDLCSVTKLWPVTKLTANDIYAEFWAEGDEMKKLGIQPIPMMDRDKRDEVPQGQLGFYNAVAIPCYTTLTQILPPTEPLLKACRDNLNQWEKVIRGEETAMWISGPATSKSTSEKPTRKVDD
In words: In vitro assay PDE10A (SPA, 3H-cAMP). Format: biochemical. Summed up: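 Purified Sf9-expressed rat PDE10A2 incubated 60 min at RT with 60 nM cAMP plus 0.008 μCi 3H-cAMP in 50 mM Tris pH 7.8, 8.3 mM MgCl2, 1.7 mM EGTA, 1% DMSO final. Product quantified by scintillation proximity counting against no-enzyme blanks and DMSO controls.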

A further experiment addresses PDE3A (Homo sapiens, UniProt Q14432). Put plainly: In vitro PDE selectivity assay, PDE3A. To be noted: Table 4a in vitro selectivity; read-out: IC50 PDE type 3A. It is filed as biochemical. As for the experimental part:
as §1

In a further experiment the target is PDE11A (Homo sapiens, UniProt Q9HCR9). In words: In vitro PDE selectivity assay, PDE11A. As to conditions: Table 4a in vitro selectivity; read-out: IC50 PDE type 11A. Format: biochemical. Here is the method: as §1
Chain of PDE11A (Q9HCR9 whole entry, species assumed): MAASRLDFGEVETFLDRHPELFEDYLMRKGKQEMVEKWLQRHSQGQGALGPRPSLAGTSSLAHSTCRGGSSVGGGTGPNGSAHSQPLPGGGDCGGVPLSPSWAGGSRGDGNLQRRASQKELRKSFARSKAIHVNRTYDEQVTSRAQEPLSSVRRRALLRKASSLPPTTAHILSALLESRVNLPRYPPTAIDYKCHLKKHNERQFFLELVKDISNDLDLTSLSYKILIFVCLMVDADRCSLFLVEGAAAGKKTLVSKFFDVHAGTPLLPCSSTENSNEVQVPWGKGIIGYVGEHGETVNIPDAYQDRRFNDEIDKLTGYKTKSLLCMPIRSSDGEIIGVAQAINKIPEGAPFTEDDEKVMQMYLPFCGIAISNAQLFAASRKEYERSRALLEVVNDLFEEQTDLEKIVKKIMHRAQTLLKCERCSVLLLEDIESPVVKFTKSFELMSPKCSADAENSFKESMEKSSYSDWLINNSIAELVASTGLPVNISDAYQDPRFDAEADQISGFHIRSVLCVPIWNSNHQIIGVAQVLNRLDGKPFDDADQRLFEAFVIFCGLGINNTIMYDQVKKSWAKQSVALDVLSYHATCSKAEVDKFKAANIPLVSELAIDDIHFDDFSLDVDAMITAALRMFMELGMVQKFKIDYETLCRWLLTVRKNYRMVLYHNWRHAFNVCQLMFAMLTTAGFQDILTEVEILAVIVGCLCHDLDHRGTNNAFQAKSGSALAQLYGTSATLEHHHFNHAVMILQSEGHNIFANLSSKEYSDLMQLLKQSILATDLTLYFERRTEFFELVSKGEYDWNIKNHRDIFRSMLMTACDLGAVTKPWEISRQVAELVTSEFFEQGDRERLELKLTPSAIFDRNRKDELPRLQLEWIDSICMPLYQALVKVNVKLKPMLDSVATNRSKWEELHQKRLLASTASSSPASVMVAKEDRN
In a further experiment the target is PDE7A (Homo sapiens, UniProt Q13946). In words: In vitro PDE selectivity assay, PDE7A. Format: biochemical. To be noted: Table 4a in vitro selectivity; read-out: IC50 PDE type 7A. Here is the method: as §1
Chain of PDE7A (Q13946 whole entry, species assumed): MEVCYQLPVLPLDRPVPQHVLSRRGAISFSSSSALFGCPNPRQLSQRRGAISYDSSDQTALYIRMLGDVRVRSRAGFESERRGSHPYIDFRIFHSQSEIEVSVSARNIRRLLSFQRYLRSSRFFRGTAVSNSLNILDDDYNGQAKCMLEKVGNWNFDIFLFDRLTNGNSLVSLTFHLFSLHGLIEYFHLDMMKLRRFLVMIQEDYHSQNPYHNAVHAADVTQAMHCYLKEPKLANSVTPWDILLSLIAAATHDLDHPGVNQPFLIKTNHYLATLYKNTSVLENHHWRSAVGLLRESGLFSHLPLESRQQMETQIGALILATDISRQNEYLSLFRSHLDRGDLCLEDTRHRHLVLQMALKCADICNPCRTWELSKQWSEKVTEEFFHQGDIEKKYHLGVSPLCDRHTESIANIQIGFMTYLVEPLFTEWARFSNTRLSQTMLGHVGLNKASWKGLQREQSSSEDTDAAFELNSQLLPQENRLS
A further experiment deals with PDE2A (Homo sapiens, UniProt O00408). Put plainly: In vitro PDE selectivity assay, PDE2A. It is filed as biochemical. As for the experimental part: as §1
Chain of PDE2A (O00408 whole entry, species assumed): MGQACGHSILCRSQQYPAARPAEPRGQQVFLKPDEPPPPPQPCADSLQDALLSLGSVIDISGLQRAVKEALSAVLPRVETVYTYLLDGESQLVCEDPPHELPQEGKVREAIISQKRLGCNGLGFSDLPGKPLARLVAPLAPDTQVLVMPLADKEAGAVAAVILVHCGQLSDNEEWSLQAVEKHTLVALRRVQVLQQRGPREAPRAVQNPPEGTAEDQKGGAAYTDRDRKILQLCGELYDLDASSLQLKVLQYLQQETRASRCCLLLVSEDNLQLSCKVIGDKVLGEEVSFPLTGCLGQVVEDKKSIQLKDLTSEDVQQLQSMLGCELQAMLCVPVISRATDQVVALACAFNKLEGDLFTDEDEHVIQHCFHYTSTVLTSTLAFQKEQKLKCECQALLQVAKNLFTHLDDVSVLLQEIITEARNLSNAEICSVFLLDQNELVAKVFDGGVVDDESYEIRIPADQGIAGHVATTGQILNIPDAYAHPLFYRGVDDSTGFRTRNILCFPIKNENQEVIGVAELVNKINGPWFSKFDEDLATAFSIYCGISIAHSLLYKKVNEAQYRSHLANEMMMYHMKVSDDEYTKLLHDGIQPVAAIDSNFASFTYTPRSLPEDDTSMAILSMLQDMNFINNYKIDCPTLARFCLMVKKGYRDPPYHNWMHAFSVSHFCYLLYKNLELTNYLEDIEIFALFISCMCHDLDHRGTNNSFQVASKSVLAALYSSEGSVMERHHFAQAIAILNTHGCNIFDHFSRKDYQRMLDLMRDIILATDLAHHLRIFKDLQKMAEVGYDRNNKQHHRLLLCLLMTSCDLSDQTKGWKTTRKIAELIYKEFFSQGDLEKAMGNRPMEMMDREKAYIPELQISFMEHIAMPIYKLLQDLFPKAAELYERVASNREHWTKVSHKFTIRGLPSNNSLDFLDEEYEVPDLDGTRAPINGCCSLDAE
Another experiment has as its target PDE4D (Homo sapiens, UniProt Q08499). In words: In vitro PDE selectivity assay, PDE4D. It is filed as biochemical. As to conditions: Table 4a in vitro selectivity; read-out: IC50 PDE type 4D. As for the experimental part: as §1
For the next experiment, the target named is T2, PDE10 (Rattus norvegicus, UniProt Q9QYJ6).
T2 construct: from tissue; host or cells: rat brain sections, striatum (ex vivo autoradiography after in vivo dosing)
T2 sequence (Q9QYJ6 1-794): T1 sequence (Q9QYJ6 1-794)
Put plainly: PDE10 occupancy ([3H]-MP-10, striatum). Format: in vivo. As to conditions: administered s.c. As for the experimental part: Dose-response or single dose experiments were performed to measure PDE10 occupancy 1 hour after subcutaneous (s.c.) or oral (p.o.) administration. Male Wistar rats (200 g) were treated by s.c. or p.o. administration of various PDE10 inhibitors. The PDE10 radioligand [^3H]-MP-10 (10 μCi/animal) was injected intravenously (i.v.) 30 minutes before sacrifice. Brains were immediately removed from the skull and rapidly frozen. Twenty μm-thick brain sections were cut using a cryostat-microtome, thaw-mounted on microscope slides and loaded in a β-imager to quantify PDE10 occupancy in the striatum.

[6] abbreviates: pIC50 corresponds to the -log IC50 expressed in mol/L, read-out: PDE10A2 pIC50 (converted).

The source of these data is patent US8859543B2, “Imidazo[1,2-a]pyrazine derivatives and their use for the prevention or treatment of neurological, psychiatric and metabolic disorders and diseases” (Janssen Pharmaceutica NV, priority 2010, dated 2014).

Like-named read-outs stand apart in the source and are kept apart here.

Chain of PDE9A (O76083 whole entry): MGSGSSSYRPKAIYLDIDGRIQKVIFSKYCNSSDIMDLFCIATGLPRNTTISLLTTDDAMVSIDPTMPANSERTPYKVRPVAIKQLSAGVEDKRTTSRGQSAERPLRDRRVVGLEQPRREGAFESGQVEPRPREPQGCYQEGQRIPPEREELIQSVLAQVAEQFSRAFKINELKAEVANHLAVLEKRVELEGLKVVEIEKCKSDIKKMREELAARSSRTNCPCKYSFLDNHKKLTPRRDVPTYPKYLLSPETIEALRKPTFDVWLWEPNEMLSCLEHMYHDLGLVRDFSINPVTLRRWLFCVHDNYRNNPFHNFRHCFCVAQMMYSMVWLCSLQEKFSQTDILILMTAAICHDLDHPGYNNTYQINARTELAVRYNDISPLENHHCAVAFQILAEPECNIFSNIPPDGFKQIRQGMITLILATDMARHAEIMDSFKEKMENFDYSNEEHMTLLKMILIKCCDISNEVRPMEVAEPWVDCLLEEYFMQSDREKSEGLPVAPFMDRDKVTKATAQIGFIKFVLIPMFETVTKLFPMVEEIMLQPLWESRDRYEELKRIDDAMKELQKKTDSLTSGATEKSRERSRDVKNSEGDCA
Chain of PDE4D (Q08499 whole entry, species assumed): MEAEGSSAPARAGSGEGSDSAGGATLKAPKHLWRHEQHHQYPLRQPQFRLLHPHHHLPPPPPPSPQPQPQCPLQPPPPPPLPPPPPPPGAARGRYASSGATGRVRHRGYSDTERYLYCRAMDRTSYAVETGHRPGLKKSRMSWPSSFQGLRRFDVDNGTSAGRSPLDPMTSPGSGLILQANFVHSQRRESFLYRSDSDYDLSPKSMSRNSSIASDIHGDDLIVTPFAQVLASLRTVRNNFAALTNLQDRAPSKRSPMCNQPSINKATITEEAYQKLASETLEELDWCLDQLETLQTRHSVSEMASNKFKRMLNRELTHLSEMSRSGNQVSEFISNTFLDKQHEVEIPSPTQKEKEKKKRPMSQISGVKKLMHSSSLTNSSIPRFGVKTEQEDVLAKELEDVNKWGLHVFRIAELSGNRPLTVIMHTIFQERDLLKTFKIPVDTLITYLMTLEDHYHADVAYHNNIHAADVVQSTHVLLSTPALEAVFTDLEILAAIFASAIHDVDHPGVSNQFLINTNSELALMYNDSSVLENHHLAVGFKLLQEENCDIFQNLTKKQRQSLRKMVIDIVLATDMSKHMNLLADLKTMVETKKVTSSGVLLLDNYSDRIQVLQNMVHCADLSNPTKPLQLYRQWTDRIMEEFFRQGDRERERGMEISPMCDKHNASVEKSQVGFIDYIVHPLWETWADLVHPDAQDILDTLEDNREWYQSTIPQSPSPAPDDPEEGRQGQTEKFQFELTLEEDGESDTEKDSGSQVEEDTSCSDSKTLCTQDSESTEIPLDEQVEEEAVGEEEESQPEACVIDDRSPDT

As for `COc1cc2ncnc(N3CC[C@@H](Oc4cnc5ccccc5n4)C3)c2cc1OC` [PQ10, 6,7-dimethoxy-4-[3(R)-(quinoxalin-2-yloxy)pyrrolidin-1-yl]quinazoline], the “index of discrimination (d2), mean” value in experiment [1] (1 mg/kg p.o. + Scop. 0.1 mg/kg, 1 h delay) came to 0.27. Further, the “discrimination compared to the vehicle/scopolamine condition (post-hoc analysis)” value in [1] (1 mg/kg p.o. + scopolamine) is given as “significantly better discrimination”.

For orientation: ED50 means the midpoint of the dose-response relation. Take `COCCc1ccc(-c2c(C)nc3c(N4CCOCC4)nccn23)cn1` [compound 16, 3-[6-(2-Methoxy-ethyl)-pyridin-3-yl]-2-methyl-8-morpholin-4-yl-imidazo[1,2-a]pyrazine]: the ED50 was found to be 2 mg/kg in experiment [2], 1 mg/kg in experiment [3] (read-out: APO ED50) and 1.54 mg/kg in [4].

With `COCCc1ncc(-c2c(C)nc3c(N4CCOCC4)nccn23)cn1` [compound 33, 3-[2-(2-Methoxy-ethyl)-pyrimidin-5-yl]-2-methyl-8-morpholin-4-yl-imidazo[1,2-a]pyrazine], the IC50 was greater than 10000 nM on PDE9A (Table 4a in vitro selectivity, read-out: IC50 PDE type 9A); greater than 10000 nM at PDE5A; 2950 nM on PDE1B; 500 nM in [5] (Table 4a in vitro selectivity, read-out: IC50 PDE type 10A); 148 nM in experiment [5] (setting [6]); greater than 10000 nM at PDE3A. In addition, the IC50 on PDE11A was greater than 10000 nM; on PDE7A it was greater than 10000 nM; at PDE2A (Table 4a in vitro selectivity, read-out: IC50 PDE type 2A), greater than 10000 nM; at PDE4D, greater than 10000 nM. The ED50 in experiment [3] (read-out: APO ED50) was 0.8 mg/kg.

On to `CO[C@@H](C)Cn1cc(-c2c(C)nc3c(N4CCOCC4)nccn23)cn1` [compound 57], for which the 50% effective dose (ED50) stood at 8 mg/kg at PDE10 (rat, sc, occupancy, read-out: Occ. ED50); 5 mg/kg in experiment [2]; 1.2 mg/kg in experiment [3] (read-out: APO ED50). For the same molecule, the “PDE10A2 pIC50” value in [5] (pIC50 corresponds to the -log IC50 expressed in mol/L) stood at 7.22.

Regarding `COC(C)(C)Cn1cc(-c2c(C)nc3c(-c4ccncc4)nccn23)cn1` [compound 78], the “Selectivity PDE9” value at PDE9A (in vitro selectivity towards PDE10A versus PDE9) was >10-100 fold, except 78 (<10 fold selectivity). Also, the “% Occ. at 10 mg/kg” value at PDE10 (10 mg/kg) came out at 76%. Besides, in experiment [3] (read-out: APO ED50), the ED50 amounted to 1.2 mg/kg. The IC50 in experiment [5] (setting [6]) was 105 nM.

Consider `Cc1nc2c(N3CCOCC3)nccn2c1-c1cnn(CC(C)C)c1` [compound 97], for which the 50% effective dose (ED50) in experiment [2] came to 12.3 mg/kg; in experiment [3] (read-out: APO ED50) it was 2 mg/kg; in experiment [4], 5.4 mg/kg.

With `c1cn2c(-c3cnn(CC4CC4)c3)cnc2c(N2CCOCC2)n1` [compound 119], the 50% effective dose (ED50) in experiment [3] (not active at 2.5 or at 10 mg/kg, not further tested, read-out: APO ED50 (not active at threshold dose)) was greater than 2.5 mg/kg. In addition, in experiment [5] (setting [6]), the IC50 was 324 nM. The “Selectivity PDE2A” value at PDE2A (in vitro selectivity towards PDE10A versus PDE2A) was “≧10 fold, except compound 119 (>3.02 fold selectivity)”.
